Strand notation (5' to 3'): a small letter for the sugar, then the base; units joined by * are phosphorothioate-linked, units joined directly phosphodiester-linked; [ ] holds rarer units or linkages, { } end groups; capitals alone tell only the bases. e = 2'-O-(2-methoxyethyl) (MOE); [5mC] = 5-methylcytosine
Assays:
[1] = system: human hnRNP L (hsHNRNP L) mRNA; experiment: 5-point dose response (DRC) of ASOs, hnRNP L mRNA by branched DNA assay in BE(2)-M17 cells; assay type: cell-based; settings: 24 h; for max. upregulation [%] (MV normalized hsHNRNP L/hsGAPDH): Lipofectamine3000, highest 120 nM, four 4-fold dilutions, bDNA, negative controls set to 100%; for EC50: hsHNRNP L mRNA upregulation, XLfit
Source text: Data were generated in biological quadruplicates. […] No significant decrease in hsGAPDH mRNA levels was observed.
Details and data are shown in Table 9A-9B, FIG. 24, and FIG. 25A-25E. In some cases, there was dose dependent hsHNRNP L on-target mRNA upregulation to varying degrees when cells were transfected with ASO compounds of interest.

[2] = system: hsHNRNP L mRNA; experiment: Time-course experiment, ASOs at 30 nM, hnRNP L mRNA by bDNA in BE(2)-M17 cells; assay type: cell-based, Homo sapiens; settings: 30 nM ASO, mock controls set to 100%, incubations 24 h, 48 h, 72 h, time point not given
Description: Lipofectamine3000 (LF3000) was again used as the transfection agent. The transfection mixture was prepared identically on three plates. […] In this case, no outliers were removed. Data were generated in biological quadruplicates.
FIG. 26 includes a comparison of results from this study next to results from Example 7. Observing the results after 24 h incubation, similar data from the analysis in Example 7 were reproduced here.

Row | Substance | max. upregulation [%] (MV normalized hsHNRNP L/hsGAPDH) [1] | EC50 [1] | MV normalized hsHNRNP L/hsGAPDH [2]
1 | 5UTR-V1-1: ASO ATGGCGGCGCAGAACCCGCCTC (SEQ ID NO: 47), fully 2′-MOE, 5′-methyl C, phosphorothioate; hnRNP L 5′ UTR (antisense eA*eT*eG*eG*e[5mC]*eG*eG*e[5mC]*eG*e[5mC]*eA*eG*eA*eA*e[5mC]*e[5mC]*e[5mC]*eG*e[5mC]*e[5mC]*eT*e[5mC]; listed as Homo sapiens) | 11.4% | – | –
2 | 5UTR-V1-2: ASO TCCGCGACATGGCGGCGCAGAA (SEQ ID NO: 48), fully 2′-MOE, 5′-methyl C, phosphorothioate; hnRNP L 5′ UTR (antisense eT*e[5mC]*e[5mC]*eG*e[5mC]*eG*eA*e[5mC]*eA*eT*eG*eG*e[5mC]*eG*eG*e[5mC]*eG*e[5mC]*eA*eG*eA*eA; listed as Homo sapiens) | 16.2% | – | –
3 | 5UTR-V1-3: ASO GCAGCAGCCTCCGCGACATGGC (SEQ ID NO: 49), fully 2′-MOE, 5′-methyl C, phosphorothioate; hnRNP L 5′ UTR (antisense eG*e[5mC]*eA*eG*e[5mC]*eA*eG*e[5mC]*e[5mC]*eT*e[5mC]*e[5mC]*eG*e[5mC]*eG*eA*e[5mC]*eA*eT*eG*eG*e[5mC]; listed as Homo sapiens) | 22.4% | – | –
4 | Skip-6A-1: ASO GTACACATCCGCTACAATTTTT (SEQ ID NO: 50), fully 2′-MOE, 5′-methyl C, phosphorothioate; upstream intron of hnRNP L exon 6A (antisense eG*eT*eA*e[5mC]*eA*e[5mC]*eA*eT*e[5mC]*e[5mC]*eG*e[5mC]*eT*eA*e[5mC]*eA*eA*eT*eT*eT*eT*eT; listed as Homo sapiens) | 9.1% | 15.2 nM | 13.0%
5 | Skip-6A-2: ASO AGTCACGGTACACATCCGCTAC (SEQ ID NO: 51), fully 2′-MOE, 5′-methyl C, phosphorothioate; upstream intron (antisense eA*eG*eT*e[5mC]*eA*e[5mC]*eG*eG*eT*eA*e[5mC]*eA*e[5mC]*eA*eT*e[5mC]*e[5mC]*eG*e[5mC]*eT*eA*e[5mC]; listed as Homo sapiens) | 7.2% | 18.5 nM | 1.8%
6 | Skip-6A-3: ASO TAAATACAAGTCACGGTACACA (SEQ ID NO: 52), fully 2′-MOE, 5′-methyl C, phosphorothioate; upstream intron (antisense eT*eA*eA*eA*eT*eA*e[5mC]*eA*eA*eG*eT*e[5mC]*eA*e[5mC]*eG*eG*eT*eA*e[5mC]*eA*e[5mC]*eA; listed as Homo sapiens) | 22.1% | 9.29 nM | 29.0%
7 | Skip-6A-4: ASO TACAGTCATAAATACAAGTCAC (SEQ ID NO: 53), fully 2′-MOE, 5′-methyl C, phosphorothioate; upstream intron (antisense eT*eA*e[5mC]*eA*eG*eT*e[5mC]*eA*eT*eA*eA*eA*eT*eA*e[5mC]*eA*eA*eG*eT*e[5mC]*eA*e[5mC]; listed as Homo sapiens) | 24.0% | 18.9 nM | 26.9%
8 | Skip-6A-5: ASO ATGGTTTTACAGTCATAAATAC (SEQ ID NO: 54), fully 2′-MOE, 5′-methyl C, phosphorothioate; upstream intron (antisense eA*eT*eG*eG*eT*eT*eT*eT*eA*e[5mC]*eA*eG*eT*e[5mC]*eA*eT*eA*eA*eA*eT*eA*e[5mC]; listed as Homo sapiens) | 41.6% | 7.25 nM | 67.3%
9 | Skip-6A-6: ASO TGCATCACATGGTTTTACAGTC (SEQ ID NO: 55), fully 2′-MOE, 5′-methyl C, phosphorothioate; upstream intron (antisense eT*eG*e[5mC]*eA*eT*e[5mC]*eA*e[5mC]*eA*eT*eG*eG*eT*eT*eT*eT*eA*e[5mC]*eA*eG*eT*e[5mC]; listed as Homo sapiens) | 65.1% | 6.23 nM | 81.7%
10 | Skip-6A-7: ASO GCGACCCTGCATCACATGGTTT (SEQ ID NO: 56), fully 2′-MOE, 5′-methyl C, phosphorothioate; upstream intron/exon (antisense eG*e[5mC]*eG*eA*e[5mC]*e[5mC]*e[5mC]*eT*eG*e[5mC]*eA*eT*e[5mC]*eA*e[5mC]*eA*eT*eG*eG*eT*eT*eT; listed as Homo sapiens) | 51.2% | 8.91 nM | 59.3%
11 | Skip-6A-8: ASO ATACACTGCGACCCTGCATCAC (SEQ ID NO: 57), fully 2′-MOE, 5′-methyl C, phosphorothioate; upstream intron/exon (antisense eA*eT*eA*e[5mC]*eA*e[5mC]*eT*eG*e[5mC]*eG*eA*e[5mC]*e[5mC]*e[5mC]*eT*eG*e[5mC]*eA*eT*e[5mC]*eA*e[5mC]; listed as Homo sapiens) | 18.0% | 8.54 nM | 26.0%
12 | Skip-6A-9: ASO TCAAACATACACTGCGACCCTG (SEQ ID NO: 58), fully 2′-MOE, 5′-methyl C, phosphorothioate; upstream intron/exon (antisense eT*e[5mC]*eA*eA*eA*e[5mC]*eA*eT*eA*e[5mC]*eA*e[5mC]*eT*eG*e[5mC]*eG*eA*e[5mC]*e[5mC]*e[5mC]*eT*eG; listed as Homo sapiens) | 40.2% | 7.15 nM | 31.3%
13 | Skip-6A-10: ASO GTCCCATCAAACATACACTGCG (SEQ ID NO: 59), fully 2′-MOE, 5′-methyl C, phosphorothioate; exon 6A (antisense eG*eT*e[5mC]*e[5mC]*e[5mC]*eA*eT*e[5mC]*eA*eA*eA*e[5mC]*eA*eT*eA*e[5mC]*eA*e[5mC]*eT*eG*e[5mC]*eG; listed as Homo sapiens) | 49.2% | 5.79 nM | 42.1%
14 | Skip-6A-11: ASO ATGGCGTCCCATCAAACATACA (SEQ ID NO: 60), fully 2′-MOE, 5′-methyl C, phosphorothioate; exon 6A (antisense eA*eT*eG*eG*e[5mC]*eG*eT*e[5mC]*e[5mC]*e[5mC]*eA*eT*e[5mC]*eA*eA*eA*e[5mC]*eA*eT*eA*e[5mC]*eA; listed as Homo sapiens) | 47.8% | 7.93 nM | 38.3%
15 | Skip-6A-12: ASO TGAAAGATGGCGTCCCATCAAA (SEQ ID NO: 61), fully 2′-MOE, 5′-methyl C, phosphorothioate; exon 6A (antisense eT*eG*eA*eA*eA*eG*eA*eT*eG*eG*e[5mC]*eG*eT*e[5mC]*e[5mC]*e[5mC]*eA*eT*e[5mC]*eA*eA*eA; listed as Homo sapiens) | 36.6% | 16.7 nM | 14.5%
